Test results published in US7115648B2, “Indole-amide derivatives and their use as glycogen phosphorylase inhibitors” (AstraZeneca AB, priority 2002, dated 2006).

Experiments:
hepatocytes = details: cited from earlier work
db/db and ob/ob mice = details: dose related; cited from earlier work
[1] = biological target: T1, Human recombinant liver glycogen phosphorylase a (hrl GPa) (Homo sapiens, UniProt P06737); experiment: Glycogen degradation multienzyme coupled assay (NADH fluorescence); format: biochemical; details: glycogen degradation direction
T1 sequence (P06737 1-847): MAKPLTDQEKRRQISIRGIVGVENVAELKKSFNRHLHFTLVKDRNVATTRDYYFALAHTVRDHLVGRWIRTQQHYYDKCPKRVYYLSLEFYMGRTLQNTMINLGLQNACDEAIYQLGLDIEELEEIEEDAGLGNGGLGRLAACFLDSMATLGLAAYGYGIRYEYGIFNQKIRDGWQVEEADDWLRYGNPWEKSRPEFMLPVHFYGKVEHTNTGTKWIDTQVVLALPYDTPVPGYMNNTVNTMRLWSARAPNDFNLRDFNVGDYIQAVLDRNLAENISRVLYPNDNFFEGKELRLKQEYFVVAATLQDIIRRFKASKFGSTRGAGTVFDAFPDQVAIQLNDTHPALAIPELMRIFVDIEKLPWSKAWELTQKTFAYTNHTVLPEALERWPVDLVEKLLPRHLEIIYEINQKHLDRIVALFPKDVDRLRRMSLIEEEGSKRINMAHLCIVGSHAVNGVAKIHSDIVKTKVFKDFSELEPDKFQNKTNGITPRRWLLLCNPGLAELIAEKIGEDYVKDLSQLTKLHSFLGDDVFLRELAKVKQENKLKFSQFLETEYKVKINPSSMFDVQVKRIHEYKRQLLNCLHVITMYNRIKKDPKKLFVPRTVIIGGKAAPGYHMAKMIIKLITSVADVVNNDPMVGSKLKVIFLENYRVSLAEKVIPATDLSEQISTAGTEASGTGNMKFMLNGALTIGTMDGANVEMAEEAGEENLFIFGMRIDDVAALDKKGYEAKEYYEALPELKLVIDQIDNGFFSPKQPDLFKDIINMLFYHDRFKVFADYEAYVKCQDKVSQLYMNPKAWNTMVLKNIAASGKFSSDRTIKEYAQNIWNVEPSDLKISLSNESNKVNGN
Experimental: The activity of the compounds is alternatively determined by measuring the inhibitory effect of the compounds on glycogen degradation, the production of glucose-1-phosphate from glycogen is monitored by the multienzyme coupled assay, as described in EP 0 846 464 A2, general method of Pesce et al (Pesce, M A, Bodourian, S H, Harris, R C, and Nicholson, J F (1977) Clinical Chemistry 23, […]). The reactions were in 384 well microplate format in a volume of 50 μl. The change in fluorescence due to the conversion of the co-factor NAD to NADH is measured at 340 nm excitation, 465 nm emission in a Tecan Ultra Multifunctional Microplate Reader. The reaction is in 50 mM HEPES, 3.5 mM KH2PO4, 2.5 mM MgCl2, 2.5 mM ethylene glycol-bis(b-aminoethyl ether) N,N,N′,N′-tetraacetic acid, 100 mM KCl, 8 mM D-(+)-glucose pH7.2, containing 0.5 mM dithiothreitol, the assay buffer solution. Human recombinant liver glycogen phosphorylase a (hrl GPa) 20 nM is pre-incubated in assay buffer solution with 6.25 mM NAD, 1.25 mg type III glycogen at 1.25 mg ml^−1 the reagent buffer, for 30 minutes. […] The non-inhibited activity of GPa is measured in the presence of 10 μl 5% DMSO in assay buffer solution and maximum inhibition measured in the presence of 5 mgs ml^−1 N-ethylmaleimide. […] Relative Fluoresence Units (RFUs) are measured at 340 nm excitation, 465 nm emission. […]

conscious dogs = details: cited from earlier work

O=C(N[C@@H](Cc1ccc(F)cc1)C(=O)N1CCC(O)CC1)c1cc2cc(Cl)ccc2[nH]1 [CP320626]
glucagon stimulated glycogenolysis (hepatocytes): reduce
glucose output in hepatocytes (hepatocytes): reduce
plasma glucose concentration (db/db and ob/ob mice): reduced, in a dose related manner

O=C(NCC(=O)N(CCO)c1ccccc1)c1cc2cc(Cl)ccc2[nH]1 [Example 1, 5-Chloro-N-{2-[(2-hydroxyethyl)phenylamino]-2-oxoethyl}-1H-indole-2-carboxamide]
IC50 [1]: 550 nM

CCN1C(C)=C(C(=O)OC(C)C)C(c2ccccc2Cl)C2=C1COC2=O (stereo not drawn) [Bay R 3401]
arterial plasma glucose following a glucagon challenge (conscious dogs): reduced significantly
hepatic glucose output following a glucagon challenge (conscious dogs): reduced significantly

CN(C)C(=O)[C@H](O)[C@H](Cc1ccccc1)NC(=O)c1cc2cc(Cl)ccc2[nH]1 [CP91149]
glucagon stimulated glycogenolysis (hepatocytes): reduce
glucose output in hepatocytes (hepatocytes): reduce
plasma glucose concentration (db/db and ob/ob mice): reduced, in a dose related manner
